Experimental findings from the OPERA property sets (Mansouri et al. 2018) are described below.

Where a SMILES comes first, the peptide text is derived from it. [ ]: non-standard residue; d: D form. ξ: configuration not given here. ξY = NC(Cc1ccc(O)cc1)C(=O)O

For `Clc1ccc(C2(Cn3cncn3)OCC3(CCC4OC4C3)CO2)c(Cl)c1` (configuration not stated), the log partition coefficient (logP) worked out at 1.87.
In turn, `OCCNc1ncnc2c1ncn2C1OC(CO)C(O)C1O` (configuration not stated) registered a logP of -1.13.
For `CCC(C)C(N)C(=O)NC(CO)C(=O)NC(C(=O)O)C(C)CC` (stereo not drawn) (H-Ile-Ser-Ile-OH; configuration not given here), the logP is -2.64.
As for `CNC(=O)Nc1ccc(C(=O)O)cc1`, the figure is 1.1; as for `COc1ccc(C2Cc3c(cccc3C(F)(F)F)N(CCN(C)C)C(=O)C2C)cc1` (configuration not stated), 5.6; as for `O=C(Nc1ncnc2nc[nH]c12)c1ccccc1`, 1.12.
In turn, `Nc1ccc(S(=O)(=O)Nc2cccc3[nH]ccc23)cc1` had a log partition coefficient (logP) of 1.41.
The result for `Cc1cc(=O)oc2c1ccc1occ(C)c12` reads 3.08.
The compound `Nc1nnnn1-c1ccc(F)cc1` had a logP of 0.75.
`CC1=C(CC(=O)O)c2cc(F)ccc2C1=Cc1ccc(S(C)(=O)=O)cc1`: the logP was 3.29.
The result for `O=C(O)CCCON=C(c1ccccc1)c1cncnc1` reads 2.2; that for `CC(C)(C)[N+]([O-])=Cc1ccc(Cl)cc1`, 2.4; that for `Cc1cccc(OCC2CN=C(N)O2)c1` (configuration not stated), 1.75.
The result for `CCCCC(O)C(CCCCOc1cccc(C)c1)n1cncn1` (configuration not stated) reads 3.6; that for `CC(C)NC(=NC#N)NS(=O)(=O)c1cnccc1NC1CCCCCCC1`, 2.58; that for `Clc1nc(-c2ccccc2)nc2ccccc12`, 4.47.
As for `Nc1nnnn1-c1ccc([N+](=O)[O-])cc1`, the figure is 0.77.
`O=C(O)Cc1ccccc1Nc1c(F)cccc1F`: the lipophilicity (logP) was 3.57.
For `COCCNC(=O)c1c(C)nc2c3c(c(C(=O)N(C)C)cn12)CCC(c1ccccc1)O3` (configuration not stated), the logP was 2.15.
As for `COc1ccc(C2Cc3cc(C(F)(F)F)ccc3N(CCN(C)C)C(=O)C2CC(C)=O)cc1` (configuration not stated), the figure is 4.7; as for `NC(=O)c1cc(OCCNCC(O)CON=C(C2CC2)C2CC2)ccc1O` (configuration not stated), 1.69; as for `CNCc1ccc(C)cc1`, 1.96.
The compound `CC(C)NCC(O)COc1ccc(-c2nc(-c3cccs3)c[nH]2)cc1` (configuration not stated) came in with a logP of 3.2.
The result for `CCN(CC)C(=O)COC(=O)c1cc(S(N)(=O)=O)c(Cl)cc1NCc1ccco1` reads 2.45; that for `Cc1cnc(C(=O)OCCCn2ccc(=O)c(O)c2C)cn1`, -0.49.
The result for `CC(C)CC(NC(=O)C(NC(=O)C(N)C(C)O)C(C)C)C(=O)O` (stereo not drawn) (H-Thr-Val-Leu-OH; configuration not given here) reads -1.97; that for `NC(Cc1ccc(O)cc1)C(=O)NCC(=O)NCC(=O)O` (stereo not drawn) (H-[ξY]-Gly-Gly-OH), -3.51; that for `CN(C1=NC(=O)N(c2ccc(Cl)cc2)C1)C1CCCCC1`, 2.7.
The result for `COC(=O)C(C)=CC1C(C(=O)OCc2cccc(OCc3ccccc3)c2)C1(C)C` (configuration not stated) reads 6.06.
`CCCCCCNC(=O)N1C(=O)N(C)CC1O` (configuration not stated) yielded a logP of 2.39.
`NC(Cc1ccccc1)C(=O)NC(Cc1ccc(O)cc1)C(=O)O` (stereo not drawn) (H-Phe-Tyr-OH; configuration not given here) yielded a logP of -1.68.
As for `CCN(CC)CC(=O)Nc1ccccc1`, the figure is 2.49; as for `O=C(O)CCCCCON=C(c1ccccc1)c1ccncn1`, 2.66.
The result for `CC(=O)OCCCOC(=O)C(C)c1cccc(C(=O)c2ccccc2)c1` (configuration not stated) reads 3.6; that for `O=C1C=C(N2CCCCCC2)CN1c1ccc(Cl)cc1`, 3.4.
As for `CCCN(C)CC(=O)Nc1c(C)cccc1C`, the figure is 2.28; as for `NC(Cc1c[nH]c2ccccc12)C(=O)N1CCCC1C(=O)O` (configuration not stated), -0.98.
`O=C(NC1CCCCCC1)NS(=O)(=O)c1cnccc1NC1CCCCCC1` gave a logP of 4.96.
In the case of `CC(C)CC(N)C(=O)NC(C)C(=O)NC(CC(C)C)C(=O)O` (stereo not drawn) (H-Leu-Ala-Leu-OH; configuration not given here), the logP was -2.03.
The result for `CCCNC(=O)Cn1cccc(O)c1=O` reads -0.24.
`CC1CC(=O)NN=C1c1ccc(-n2ccnc2)cc1` (configuration not stated) registered a logP of 1.29.
As for `NC(=O)C(Cc1c[nH]c2ccccc12)NC(=O)C(N)Cc1ccccc1` (stereo not drawn) (H-Phe-Trp-NH2; configuration not given here), the figure is 1.38.
The compound `ClCC1(C(Cl)Cl)C2CC(Cl)C1(C(Cl)Cl)CC2(Cl)Cl` (configuration not stated) displayed a lipophilicity (logP) of 5.75.
The result for `Cc1ccc(Cc2c[nH]cn2)c(C)c1` reads 2.7.
The result for `OCCCCCNc1[nH]cnc2ncnc1-2` reads 0.72.
The compound `CCCCOc1ccc(NC(=O)OCCN2CCCCC2)cc1` came in with a lipophilicity (logP) of 4.69.
`C=Cn1c([N+](=O)[O-])cnc1C=Cc1ccc(C(=O)O)cc1` yielded a logP of 2.68.
In turn, `CC1CCC(NC(=O)N2C(=O)N(C)CC2O)CC1` (configuration not stated) yielded a logP of 2.41.
As for `COc1ccccc1-n1nnnc1N`, the figure is 0.56.
As for `CCS(=O)(=O)n1cc(-c2ccc(Cl)cc2)c(N2CCOCC2)c1C(=O)OC`, the figure is 4.2.
The compound `CNc1ccc2cc3ccccc3nc2c1CO` showed a logP of 2.1.
In the case of `CC(C)CC(N)C(=O)NC(CC(C)C)C(=O)N1CCCC1C(=O)NC(CC(C)C)C(=O)O` (configuration not stated) (H-LLPL-OH; configuration not given here), the logP was -1.
For the compound `O=c1cc(-c2ccccc2)oc2c(Cl)cc(Cl)cc12`, the logP was 4.76.
In the case of `CC(C)(C)Nc1nc(N)nc(O)n1`, the logP is 2.07.
The result for `CC(C)NC(=O)Cn1cccc(O)c1=O` reads -0.34; that for `COC(=O)c1ccc(OP(=O)(NC(C)C(=O)OC)OCC2C=CC(n3cc(C)c(=O)[nH]c3=O)O2)cc1` (configuration not stated), 1.01.
The result for `CC(C)N(CC1CN=C(N)O1)C(C)C` (configuration not stated) reads 0.98.
The result for `CC(C(=O)OC1CCCCC1)S(=O)(=O)c1ccc([N+](=O)[O-])cc1` (configuration not stated) reads 2.82.
`CC(C)C1(C)N=C(c2ncc(CO)cc2C(=O)O)NC1=O` (configuration not stated) had a logP of -0.21.
In the case of `CCC(C)C(N)C(=O)N1CCCC1C(=O)O` (stereo not drawn) (H-Ile-Pro-OH; configuration not given here), the logP was -1.79.
As to `CC(C)CC(NC(=O)C(N)Cc1ccccc1)C(=O)O` (stereo not drawn) (H-Phe-Leu-OH; configuration not given here), the logP was -1.17.
As for `COc1ccc(CCNCC(O)COc2ccc(-c3nc(C(C)C)c[nH]3)cc2)cc1OC` (configuration not stated), the figure is 3.9; as for `O=c1ccc2cc3ccsc3cc2s1`, 2.96.
The result for `CC(C)C(NC(=O)C(N)Cc1ccc(O)cc1)C(=O)NC(Cc1ccccc1)C(=O)O` (configuration not stated) reads -1.37; that for `CC1(C)OC23CC1CCC2CCCC3(C)O` (configuration not stated), 3.57; that for `COC(=O)C(C)NP(=O)(OCC1C=CC(n2cc(C)c(=O)[nH]c2=O)O1)Oc1ccc(C(F)(F)F)cc1` (configuration not stated), 1.57.
The result for `COP(=O)(OC)Oc1ccc(C#N)cc1` reads 0.84; that for `Cc1cc2ccc(=O)oc2c2ccoc12`, 2.39; that for `Cc1cccc(C)c1CCc1cnc[nH]1`, 2.91.
`CC1CC(N)CN1c1cc2c(cc1F)c(=O)c(C(=O)O)cn2-c1ccc(F)cc1F` (configuration not stated) yielded a logP of 0.09.
As for `Cc1nc2ccccc2c(=O)n1CCC(=O)O`, the figure is 0.93; as for `CCc1cccc(COC(=O)C2C(C=C(C)C)C2(C)C)c1` (configuration not stated), 6.51.
The result for `NS(=O)(=O)c1ccncn1` reads -0.2; that for `CC(C)CC(=O)OCC(=O)C1(O)C(C)CC2C3CCC4=CC(=O)C=CC4(C)C3(F)C(O)CC21C` (configuration not stated), 3.8; that for `CCOC(=O)C(C)(Cc1ccccc1)S(=O)(=O)c1ccc([N+](=O)[O-])cc1` (configuration not stated), 3.4.
In turn, `CCCCNc1ncnc2nc[nH]c12` yielded a logP of 2.
As for `O=c1[nH]c2cc(Cl)ccc2c(O)c1-c1cccc(Oc2ccccc2)c1`, the figure is 5.1; as for `CCCCCOc1ccc(NC(=O)OCCN2CCCCC2)cc1`, 5.31; as for `O=c1cc(-c2ccc(Cl)cc2)oc2ccccc12`, 3.89.
On to `COc1cc(OC)c2c(c1)OC(c1ccc(OC)c(OC)c1)C(OC)C2` (configuration not stated), for which the logP turned out to be 3.68.
The result for `COc1ccc(C2Cc3cc(Cl)ccc3N(CCN(C)C)C(=O)C2OC(C)=O)cc1` (configuration not stated) reads 4.2; that for `CCOC(=O)c1ccc(N=NN(C)C(=O)OCOC(C)=O)cc1`, 3.44; that for `COC(=O)Sc1ncc(C=C(C(=O)OC)C(=O)OC)n1C`, 0.49.
The result for `CC(CO)CCNc1ncnc2nc[nH]c12` (configuration not stated) reads 1.16; that for `CC(NC(=O)C(N)Cc1c[nH]c2ccccc12)C(=O)O` (configuration not stated), -1.98.
`COC(=O)C(C)NP(=O)(OCC1C=CC(n2cc(C)c(=O)[nH]c2=O)O1)Oc1ccc(I)cc1` (configuration not stated) came in with a logP of 1.93.
As for `O=C1N=C(N2CCOCC2)CN1c1ccc(Cl)cc1`, the log partition coefficient (logP) came to 1.5.
Regarding `CN1CCN2c3ccccc3Cc3ccccc3C2C1` (configuration not stated), the logP came to 4.24.
For `CC(=O)c1cccc(CNc2[nH]cnc3ncnc2-3)c1`, the logP came to 1.73.
The result for `CC(C)CC(N)C(=O)NC(CC(C)C)C(=O)NC(CC(C)C)C(=O)N1CCCC1C(=O)O` (configuration not stated) (H-LLLP-OH; configuration not given here) reads -1.18.
Compound `COC(=O)C(C)NP(=O)(OCC1C=CC(n2cc(C)c(=O)[nH]c2=O)O1)Oc1cccc(I)c1` (configuration not stated) gave a logP of 1.78.
The result for `OCc1cnc(O)nc1O` reads -1.94; that for `CC(C)=CC1C(C(=O)OCc2cccc(S(C)(=O)=O)c2)C1(C)C` (configuration not stated), 3.83; that for `C=C1C(=O)OC2CC(C)C3C4CC(=O)C3(CC12)C1(C4)C(=O)OC2CC(C)C3C=CC(=O)C3(C)C(O)C21` (configuration not stated), 1.66.
As for `COc1cccc(C(O)C(C(=O)O)c2ccc(-c3ccccc3)cc2)c1` (configuration not stated), the figure is 3.53; as for `CC(=NNC(=O)c1ccc(N)cc1)c1cnccn1`, 1.3; as for `COc1cc(OC)nc(Oc2cccc(Oc3ccccc3)c2C(=O)O)n1`, 3.43.
In turn, `COc1coc(CSC(=S)N(C)C)cc1=O` gave a logP of 1.14.
The compound `CC(C)NC(=NC#N)NS(=O)(=O)c1cnccc1Nc1ccc(Cl)cc1` displayed a logP of 2.37.
Take `COc1ccc(C2Cc3ccccc3N(CCN(C)C)C(=O)C2OC(C)=O)cc1` (configuration not stated): the logP worked out at 3.2.
The result for `COC(=O)c1ccc2ccc3cccc4ccc1c2c34` reads 4.73; that for `CC(C)CC(N)C(=O)NC(Cc1ccccc1)C(=O)O` (stereo not drawn) (H-Leu-Phe-OH; configuration not given here), -1.15.
